Measurements as given in PubChem BioAssay (NCI).
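Results reflect a 48-hour exposure of cells in 96-well plates to compound at five concentrations. TGI: total growth inhibition.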

Tests used:
Experiment in all cases: NCI tumour cell line growth inhibition, 48 h
A498 renal = tested on: A498 renal
HCC-2998 colon = tested on: HCC-2998 colon
K-562 leukemia = tested on: K-562 leukemia
KM20L2 colon = tested on: KM20L2 colon
M19-MEL melanoma = tested on: M19-MEL melanoma
MALME-3M melanoma = tested on: MALME-3M melanoma
NCI/ADR-RES ovarian = tested on: NCI/ADR-RES ovarian
OVCAR-5 ovarian = tested on: OVCAR-5 ovarian
P388 leukemia = tested on: P388 leukemia
P388/ADR leukemia = tested on: P388/ADR leukemia
SF-295 CNS = tested on: SF-295 CNS
SK-MEL-28 melanoma = tested on: SK-MEL-28 melanoma
SN12K1 renal = tested on: SN12K1 renal
SNB-78 CNS = tested on: SNB-78 CNS
SW-620 colon = tested on: SW-620 colon
UACC-62 melanoma = tested on: UACC-62 melanoma
XF 498 CNS = tested on: XF 498 CNS
M14 melanoma = tested on: M14 melanoma
TK-10 renal = tested on: TK-10 renal
PC-3 prostate = tested on: PC-3 prostate

Compound | TGI (A498 renal) | TGI (HCC-2998 colon) | TGI (K-562 leukemia) | TGI (KM20L2 colon) | TGI (M19-MEL melanoma) | TGI (MALME-3M melanoma) | TGI (NCI/ADR-RES ovarian) | TGI (OVCAR-5 ovarian) | TGI (P388 leukemia) | TGI (P388/ADR leukemia) | TGI (SF-295 CNS) | TGI (SK-MEL-28 melanoma) | TGI (SN12K1 renal) | TGI (SNB-78 CNS) | TGI (SW-620 colon) | TGI (UACC-62 melanoma) | TGI (XF 498 CNS) | TGI (M14 melanoma) | TGI (TK-10 renal) | TGI (PC-3 prostate)
CCN(CC)CCCOC(=O)/C=C/c1c(C)[nH]c(=O)[nH]c1=O | > 412 µM | > 625 µM | > 625 µM | > 625 µM | > 625 µM | > 625 µM | > 625 µM | > 625 µM | > 625 µM | > 394 µM | > 625 µM | > 625 µM | > 625 µM | > 625 µM | > 625 µM | > 625 µM | > 625 µM |  |  | 
CCCCCCCCCCCCCCCCSCC(COC)COP(=O)([O-])OCC[N+](C)(C)C (stereo not given) | 19.1 µM | 3.56 µM | 28 µM |  | 11 µM | 29.4 µM | 30 µM | 26 µM | 5.26 µM | 15.2 µM | 11.6 µM | 29.5 µM | 24.2 µM | 26.1 µM | 17.7 µM | 19.6 µM | 19.8 µM |  |  | 
C/C(=N\NS(=O)(=O)c1ccccc1)c1ccccc1 | > 100 µM | > 100 µM | > 100 µM | > 100 µM |  | > 100 µM | > 100 µM | > 100 µM | > 100 µM | > 100 µM | > 100 µM | > 100 µM | > 100 µM | > 100 µM | > 100 µM | > 100 µM | > 100 µM |  |  | 
O=C(CC/C=C(/CS(=O)(=O)c1ccccc1)S(=O)(=O)c1ccccc1)c1ccccc1 | > 100 µM | > 100 µM | > 100 µM | > 100 µM |  |  |  | > 100 µM |  |  | > 100 µM | > 100 µM |  |  | > 100 µM | > 100 µM | > 100 µM | > 100 µM | > 100 µM | 
CC(=O)NCCC1CN(C(=O)/C=C\C#C[Si](C)(C)C)c2ccccc21 (stereo not given) | > 100 µM | 43.2 µM | > 100 µM |  |  | 49.4 µM | 54.6 µM | 33.7 µM |  |  | > 100 µM | > 100 µM |  |  | > 100 µM | 32.4 µM |  | 45.5 µM | > 100 µM | > 100 µM
O=C(NCCCCCCNC(=O)n1cc(F)c(=O)[nH]c1=O)NCCCOCCOCCCNC(=O)C(O)C(O)C(O)C(O)CO (stereo not given) | > 2.5 µM | > 2.5 µM | > 2.5 µM | > 2.5 µM | > 2.5 µM | > 2.5 µM | > 2.5 µM | > 2.5 µM | > 2.5 µM | > 2.5 µM | > 2.5 µM | > 2.5 µM | > 2.5 µM | > 2.5 µM | > 2.5 µM | > 2.5 µM | > 2.5 µM |  |  | 
O=C1CC(=O)c2c(O)cc(O)c(c2O)-c2c(ccc(O)c2O)C2=CC(=O)c3c(O)cc(O)c(c3O2)-c2c1ccc(O)c2O (tested in a mixture with another compound) | > 50 µM | > 50 µM | > 50 µM |  |  | > 50 µM | > 50 µM | > 50 µM |  |  | > 50 µM | > 50 µM |  |  | > 50 µM | > 50 µM |  | > 50 µM | > 50 µM | > 50 µM
CC(=O)OCC1OC(n2cc(F)c(=O)[nH]c2=O)C(N)C(OC(C)=O)C1OC(C)=O (stereo not given) | > 100 µM | > 100 µM | > 100 µM | > 100 µM | > 100 µM | > 100 µM | > 100 µM | > 100 µM | > 100 µM | > 100 µM | > 100 µM |  | > 100 µM | > 100 µM | > 100 µM | > 100 µM | > 100 µM |  |  | 
